US20180153194A1, “AGENT HAVING ANTI-ICE NUCLEATION ACTIVITY” (THE SCHOOL CORPORATION KANSAI UNIVERSITY, priority 2015, published 2018)

Key:
[1] = Anti-ice nucleation active performance (supercooling acceleration), droplet-freezing method of Vali, silver iodide; assay type: physicochemical; details: for improvement in anti-ice nucleation activity level of tri-peptide compared to the mono-amino acid: 2.0 mM; for anti-ice nucleation activity (in words): 2.0 mM aqueous solution
Procedure: Nine hundred microliters of an aqueous solution was prepared by dissolving silver iodide in ultra-pure water to a silver iodide concentration of 1.0 mg/mL.
(§1) A blank sample was prepared by mixing 100 μL of ultra-pure water with 900 μL of the aqueous solution in which silver iodide was dissolved.
(§2) The anti-ice nucleation active performance (supercooling acceleration performance) was measured by using the droplet-freezing method of Vali. More specifically, in accordance with the droplet-freezing method of Vali (FIG. 1), an aluminum film was placed on the copper plate of a cold plate chiller (CoolAce CCA-1000, Tokyo Rikakikai Co., Ltd.), and the film was coated with a silicone oil suspension diluted with acetone and chloroform (a solution of acetone:chloroform=1:2). Then, each sample for evaluation or the blank sample was dropped (10 μL each) on 30 points of the surface, the temperature was decreased at a rate of 1.0° C./min, and the temperature at which 50% of the 30 droplets were frozen was considered to be T50.
The droplet-freezing temperature of each sample was referred to as SampleT50, and the droplet-freezing temperature of the blank sample was referred to as BlankT50. Then, the anti-ice nucleation activity level ΔT50 (° C.) was calculated by the following formula:
ΔT50 (° C.)=BlankT50−SampleT50 Formula: […]
(§3) The results are average values of the results of the test performed three times.
as §1
Each sample for evaluation was prepared by mixing 100 μL of the aqueous solutions of Examples 2 and 11 and Comparative Example 10 with 900 μL of the aqueous solution in which silver iodide was dissolved. A blank sample was prepared by mixing 100 μL of ultra-pure water with 900 μL of the aqueous solution in which silver iodide was dissolved.
as §3

Cooling curve of tofu = details: for anti-ice nucleation activity towards tofu (in words): cooling curve compared to Comparative Example 9; for Freezing onset temperature / Temperature at which tofu was completely frozen / Time taken for tofu to be completely frozen: tofu immersed overnight, cooled in freezer at −20° C.
Procedure: Silken tofu (1.5 mm (length)×1.5 mm (width)×1.5 mm (height)) that was immersed overnight in the solution of Comparative Example 9 (blank), Example 1 (tyrosine dimer), or Example 2 (tyrosine trimer) was cooled.
A thermocouple thermometer (Horiba) was inserted in tofu, and the temperature was measured every 20 seconds in a freezer at −20° C. A cooling curve was then obtained based on the relationship between the temperature (° C.) and the cooling time (in seconds) (FIG. 9). Table 5 below and FIG. 9 show the temperature at which the tofu began to freeze (freezing onset temperature), the temperature at which the tofu was completely frozen, and the time taken for the tofu to be completely frozen.

[2] = Anti-ice nucleation activity test with respect to biological material (beef liver); details: 10 μL, final concentration 0.2 mM, dropped on beef liver; blank ultra-pure water
Procedure: Ten microliters of an aqueous solution in which the aqueous solution of the anti-ice nucleation activator of Example 2 (tyrosine trimer) was diluted 10-fold with ultra-pure water (final concentration: 0.2 mM) was added dropwise on a beef liver (1 mm (length)×1 mm (width)×1 mm (height)). As a blank sample, ultra-pure water was used.
The anti-ice nucleation active performance (supercooling acceleration performance) was measured by using a method similar to the droplet-freezing method of Vali described in Test Example 1. The results are average values of the results of the test performed three times.

Pseudomonas fluorescens = experiment: Effect on different kind of ice nucleation active substance, droplet-freezing method of Vali; assay type: physicochemical; details: towards Pseudomonas fluorescens in place of silver iodide; average of three tests
Procedure: as §2, with “Then, each sample for evaluation or the blank sample was dropped (10 μL each) on 30 points of the surface, the temperature was decreased at a rate of 1.0° C./min, and the temperature at which 50% of the 30 droplets were frozen was considered to be T50.” left out
The droplet-freezing temperature of each sample was referred to as SampleT50, and the droplet-freezing temperature of the blank sample was referred to as BlankT50. Then, the anti-ice nucleation activity level ΔT50 (° C.) was calculated by the following formula: […]
A sample for evaluation of Example 1 was prepared in a manner similar to that described in Test Example 1, except that Pseudomonas fluorescens, which is the Pseudomonas bacterium, was used in place of silver iodide, which is an ice nucleation active substance. The anti-ice nucleation active performance (supercooling acceleration performance) was measured by using a test method similar to that described in Test Example 1. […]

[3] = State of tofu after freezing and thawing, and breaking load of tofu; details: frozen in liquid nitrogen
Procedure: Silken tofu (1.5 mm (length)×1.5 mm (width)×1.5 mm (height)) was immersed in the solution of Comparative Example 9 (water, blank) or Example 1 (tyrosine dimer) overnight. Thereafter, the tofu was taken out of the solution, the moisture was wiped off, and then the tofu was wrapped with wrap (plastic wrap). The tofu wrapped in plastic wrap was immersed in liquid nitrogen to be quickly frozen. The frozen tofu was then slowly thawed (warmed at 25° C.) or quickly thawed (warmed at 60° C.). […] The breaking load (N) of tofu was measured by a creep meter (RE2-33005C, Yamaden, Co., Ltd.).

[4] = ΔT50 = BlankT50 − SampleT50, 2.0 mM aqueous solution (100 μL) mixed with 900 μL silver iodide 1.0 mg/mL, average of three tests

For `N[C@@H](Cc1ccccc1)C(=O)O` [Comparative Example 4, phenylalanine, reference compound], the “Anti-ice nucleation activity level” value [1, 4] was 0.5 °C.
In the case of “Tyr-Tyr-Tyr-Tyr-Tyr (YYYYY; printed: Tyr-Tyr-Tyr-Tyr-Tyr) [Example 4]”, the “Anti-ice nucleation activity level” value [1, 4] is reported as 1.7 °C.
For Tyr-Tyr-Tyr [Example 10], the “Anti-ice nucleation activity level” value ([1]; tyrosine trimer concentration 10.0 mM, silver iodide 1.0 mg/mL) was 9.2 °C.
With Tyr-Tyr-Tyr [Example 6] the “Anti-ice nucleation activity level” value ([1]; tyrosine trimer concentration 0.2 mM, silver iodide 1.0 mg/mL) was 3.7 °C.
With `C[C@@H](O)[C@H](N)C(=O)O` [Comparative Example 8, threonine, reference compound] the “Anti-ice nucleation activity level” value [1, 4] was 0.1 °C.
In the case of Tyr-Tyr-Tyr [Example 9], the “Anti-ice nucleation activity level” value ([1]; tyrosine trimer concentration 5.0 mM, silver iodide 1.0 mg/mL) is reported as 9.2 °C.
For “Ser-Ser-Ser [Comparative Example 5, reference compound]”, the “improvement in anti-ice nucleation activity level of tri-peptide compared to the mono-amino acid” value (“improvement … compared to the mono-amino acid” below) ([1]; silver iodide) was “no improvement in the anti-ice nucleation activity level” and the “Anti-ice nucleation activity level” value [1, 4] was 0.4 °C.
For Tyr-Tyr-Tyr [Example 7], the “Anti-ice nucleation activity level” value ([1]; tyrosine trimer concentration 0.5 mM, silver iodide 1.0 mg/mL) was 1.8 °C.
In the case of Tyr-Tyr-Tyr [Example 8], the “Anti-ice nucleation activity level” value ([1]; tyrosine trimer concentration 1.0 mM, silver iodide 1.0 mg/mL) is reported as 5.7 °C.
With `N[C@@H](CO)C(=O)O` [Comparative Example 6, serine, reference compound] the “Anti-ice nucleation activity level” value [1, 4] was 0.1 °C.
For Tyr-Tyr-Tyr [Example 5], the “Anti-ice nucleation activity level” value ([1]; tyrosine trimer concentration 0.1 mM, silver iodide 1.0 mg/mL) was 2.3 °C.
In the case of “Phe-Phe-Phe [Comparative Example 3, reference compound]”, the “improvement … compared to the mono-amino acid” value ([1]; silver iodide) is reported as “no improvement in the anti-ice nucleation activity level” and the “Anti-ice nucleation activity level” value [1, 4] is reported as 0.3 °C.
In the case of Tyr-Tyr-Tyr [Example 2], the “anti-ice nucleation activity towards tofu (in words)” value (Cooling curve of tofu) is reported as “exert anti-ice nucleation activity towards tofu”, the Freezing onset temperature (Cooling curve of tofu) is reported as −0.8° ° C and the “Temperature at which tofu was completely frozen” value (Cooling curve of tofu) is reported as −7.8° ° C. The “Time taken for tofu to be completely frozen” value (Cooling curve of tofu) was 1080 s, the “anti-ice nucleation activity (in words)” value ([1]; silver iodide) was “highest anti-ice nucleation activity level” and the “improvement … compared to the mono-amino acid” value ([1]; silver iodide) was “significantly improved anti-ice nucleation activity level”. For the same molecule, the “anti-ice nucleation active performance (in words)” value ([1]; all concentration levels within 0.1 to 10.0 mM, silver iodide) was “exhibited anti-ice nucleation active performance”, the “Anti-ice nucleation activity level” value [1, 4] was 10.1 °C and the “Anti-ice nucleation activity level” value [2] was 0.6 °C. The “anti-ice nucleation active performance” value (Pseudomonas fluorescens) was 1.9 °C.
In the case of Tyr-Tyr [Example 1], the “cavities in the tofu after thawing” value ([3]; slow or quick thawing) is reported as “no cavities were formed”, the “breaking load of the tofu” value ([3]; tofu immersed overnight, slow thawing (25° C.) and quick thawing (60° C.), compared to Comparative Example 9 (water)) is reported as “low” and the “anti-ice nucleation activity towards tofu (in words)” value (Cooling curve of tofu) is reported as “exert anti-ice nucleation activity towards tofu”. The Freezing onset temperature (Cooling curve of tofu) was −1.2° ° C, the “Temperature at which tofu was completely frozen” value (Cooling curve of tofu) was −6.8° ° C and the “Time taken for tofu to be completely frozen” value (Cooling curve of tofu) was 1120 s. The “Anti-ice nucleation activity level” value [1, 4] was 2.6 °C.
In the case of “Thr-Thr-Thr [Comparative Example 7, reference compound]”, the “improvement … compared to the mono-amino acid” value ([1]; silver iodide) is reported as “no improvement in the anti-ice nucleation activity level” and the “Anti-ice nucleation activity level” value [1, 4] is reported as −0.3 °C.
In the case of `N[C@@H](Cc1ccc(O)cc1)C(=O)O` [Comparative Example 1, tyrosine, reference compound], the “anti-ice nucleation activity (in words)” value ([1]; silver iodide) is reported as “no anti-ice nucleation activity” and the “Anti-ice nucleation activity level” value [1, 4] is reported as 0.3 °C.
In the case of “Tyr-Tyr-Tyr-Tyr (YYYY; printed: Tyr-Tyr-Tyr-Tyr) [Example 3]”, the “Anti-ice nucleation activity level” value [1, 4] is reported as 1.8 °C.
